Source: patent US12263175B2, “Optimised dosage of diaminophenothiazines in populations” (WisTa Laboratories Ltd., priority 2018, dated 2025)

Test: Treatment-emergent adverse events, three Phase 3 double-blind studies, LMTM pooled safety population
Format: in vivo, human
Description: Three Phase 3, double-blind, controlled studies of LMTM have been completed (one each in subjects with mild and mild to moderate AD and one in subjects with bvFTD). Results of the AD studies have been published (Gauthier et al., 2016; Wilcock et al., 2018).
In these three studies, 1897 subjects received at least one dose of LMTM (Safety Population [Five additional subjects with AD, participating at one site in Study TRx-237-005, received a dose of study drug but were excluded from all analyses due to GCP violations], 1679 subjects with AD and 218 subjects with bvFTD). Of these, 860 subjects received the control (LMTM 8 mg/day, 750 with AD and 110 with bvFTD) and 1037 subjects received at least one dose of LMTM in the higher doses of 150 to 250 mg/day (929 with AD and 108 with bvFTD).
The incidence of the most common TEAEs are summarised by dose in the following Table EX1. This includes TEAEs that occurred at an incidence of ≥2.0% either in subjects randomised to LMTM 8 mg/day or higher doses (150 to 250 mg/day). The subset of TEAEs that were severe in intensity are also included.
The TEAEs are further analysed by using groupings of related MedDRA (Medical Dictionary for Regulatory Activities) preferred terms to better estimate the incidence of potentially treatment related adverse events. The incidence of all groupings for subjects categorised by dose (8 mg/day versus higher doses of 150 to 250 mg/day) is shown in the following Table EX2: […]

[1] = Higher Doses (150-250 mg/day) (N = 1037)
[2] = Higher Doses (150-250 mg/day) (N = 1037), All
[3] = Higher Doses (150-250 mg/day) (N = 1037), Severe Intensity

## CN(C)c1ccc2c(c1)Sc1cc(N(C)C)ccc1N2 [LMTM, leuco-methylthioninium bis(hydromethanesulfonate)]
[1]
  Grouped TEAE incidence: Affective/Anxiety Symptoms: 55 (5.3%) n (%)
  Grouped TEAE incidence: Anaemia: 219 (21.1%) n (%)
  Grouped TEAE incidence: Behavioral Symptoms: 118 (11.4%) n (%)
  Grouped TEAE incidence: Falls and Related Terms: 202 (19.5%) n (%)
  Grouped TEAE incidence: Hepatic Function Impairment: 34 (3.3%) n (%)
  Grouped TEAE incidence: Hypersensitivity: 63 (6.1%) n (%)
  Grouped TEAE incidence: Ischaemic Events, Inclusive of Myocardial Infarction: 35 (3.4%) n (%)
  Grouped TEAE incidence: Psychotic Symptoms: 34 (3.3%) n (%)
  Grouped TEAE incidence: Renal Function Impairment: 42 (4.1%) n (%)
  Grouped TEAE incidence: Renal and Urinary Disorders (Including Infections): 326 (31.4%) n (%)
  Grouped TEAE incidence: Sleep Disorders: 48 (4.6%) n (%)
  Grouped TEAE incidence: Targeted Gastrointestinal Events: 401 (38.7%) n (%)
[2]
  No. (%) of Subjects Reporting at Least One TEAE: 902 (87.0%) n (%)
  TEAE incidence: Abdominal pain: 30 (2.9%) n (%)
  TEAE incidence: Abdominal pain upper: 21 (2.0%) n (%)
  TEAE incidence: Agitation: 61 (5.9%) n (%)
  TEAE incidence: Anaemia: 59 (5.7%) n (%)
  TEAE incidence: Anxiety: 39 (3.8%) n (%)
  TEAE incidence: Arthralgia: 31 (3.0%) n (%)
  TEAE incidence: Atrial fibrillation: 10 (1.0%) n (%)
  TEAE incidence: Back pain: 44 (4.2%) n (%)
  TEAE incidence: Blood creatine phosphokinase increased: 31 (3.0%) n (%)
  TEAE incidence: Blood folate decreased: 76 (7.3%) n (%)
  TEAE incidence: Bronchitis: 19 (1.8%) n (%)
  TEAE incidence: Cerebral microhaemorrhage: 16 (1.5%) n (%)
  TEAE incidence: Confusional state: 45 (4.3%) n (%)
  TEAE incidence: Constipation: 24 (2.3%) n (%)
  TEAE incidence: Contusion: 15 (1.4%) n (%)
  TEAE incidence: Cough: 42 (4.1%) n (%)
  TEAE incidence: Decreased appetite: 39 (3.8%) n (%)
  TEAE incidence: Dehydration: 18 (1.7%) n (%)
  TEAE incidence: Depression: 37 (3.6%) n (%)
  TEAE incidence: Diarrhoea: 278 (26.8%) n (%)
  TEAE incidence: Dizziness: 64 (6.2%) n (%)
  TEAE incidence: Dysuria: 75 (7.2%) n (%)
  TEAE incidence: Fall: 78 (7.5%) n (%)
  TEAE incidence: Fatigue: 38 (3.7%) n (%)
  TEAE incidence: Folate deficiency: 45 (4.3%) n (%)
  TEAE incidence: Haemoglobin decreased: 34 (3.3%) n (%)
  TEAE incidence: Hallucination: 21 (2.0%) n (%)
  TEAE incidence: Headache: 61 (5.9%) n (%)
  TEAE incidence: Hypertension: 22 (2.1%) n (%)
  TEAE incidence: Insomnia: 32 (3.1%) n (%)
  TEAE incidence: Laceration: 14 (1.4%) n (%)
  TEAE incidence: Micturition urgency: 35 (3.4%) n (%)
  TEAE incidence: Nasopharyngitis: 43 (4.1%) n (%)
  TEAE incidence: Nausea: 86 (8.3%) n (%)
  TEAE incidence: Oedema peripheral: 20 (1.9%) n (%)
  TEAE incidence: Pain in extremity: 17(1.6%) n (%)
  TEAE incidence: Pollakiuria: 71 (6.8%) n (%)
  TEAE incidence: Rash: 30 (2.9%) n (%)
  TEAE incidence: Suicidal ideation: 30 (2.9%) n (%)
  TEAE incidence: Syncope: 28 (2.7%) n (%)
  TEAE incidence: Tremor: 13 (1.3%) n (%)
  TEAE incidence: Upper respiratory tract infection: 34 (3.3%) n (%)
  TEAE incidence: Urinary incontinence: 63 (6.1%) n (%)
  TEAE incidence: Urinary tract infection: 116 (11.2%) n (%)
  TEAE incidence: Vitamin B12 decreased: 21 (2.0%) n (%)
  TEAE incidence: Vomiting: 80 (7.7%) n (%)
  TEAE incidence: Weight decreased: 39 (3.8%) n (%)
[3]
  No. (%) of Subjects Reporting at Least One TEAE: 126 (12.2%) n (%)
  TEAE incidence: Abdominal pain: 1 (0.1%) n (%)
  TEAE incidence: Abdominal pain upper: 0 n (%)
  TEAE incidence: Agitation: 7 (0.7%) n (%)
  TEAE incidence: Anaemia: 0 n (%)
  TEAE incidence: Anxiety: 2 (0.2%) n (%)
  TEAE incidence: Arthralgia: 1 (0.1%) n (%)
  TEAE incidence: Atrial fibrillation: 2 (0.2%) n (%)
  TEAE incidence: Back pain: 2 (0.2%) n (%)
  TEAE incidence: Blood creatine phosphokinase increased: 0 n (%)
  TEAE incidence: Blood folate decreased: 0 n (%)
  TEAE incidence: Bronchitis: 0 n (%)
  TEAE incidence: Cerebral microhaemorrhage: 0 n (%)
  TEAE incidence: Confusional state: 2 (0.2%) n (%)
  TEAE incidence: Constipation: 1 (0.1%) n (%)
  TEAE incidence: Contusion: 0 n (%)
  TEAE incidence: Cough: 0 n (%)
  TEAE incidence: Decreased appetite: 1 (0.1%) n (%)
  TEAE incidence: Dehydration: 2 (0.2%) n (%)
  TEAE incidence: Depression: 2 (0.2%) n (%)
  TEAE incidence: Diarrhoea: 14 (1.4%) n (%)
  TEAE incidence: Dizziness: 2 (0.2%) n (%)
  TEAE incidence: Dysuria: 1 (0.1%) n (%)
  TEAE incidence: Fall: 7 (0.7%) n (%)
  TEAE incidence: Fatigue: 1 (0.1%) n (%)
  TEAE incidence: Folate deficiency: 0 n (%)
  TEAE incidence: Haemoglobin decreased: 0 n (%)
  TEAE incidence: Hallucination: 4 (0.4%) n (%)
  TEAE incidence: Headache: 3 (0.3%) n (%)
  TEAE incidence: Hypertension: 1 (0.1%) n (%)
  TEAE incidence: Insomnia: 0 n (%)
  TEAE incidence: Laceration: 1 (0.1%) n (%)
  TEAE incidence: Micturition urgency: 0 n (%)
  TEAE incidence: Nasopharyngitis: 0 n (%)
  TEAE incidence: Nausea: 1 (0.1%) n (%)
  TEAE incidence: Oedema peripheral: 0 n (%)
  TEAE incidence: Pain in extremity: 0 n (%)
  TEAE incidence: Pollakiuria: 2 (0.2%) n (%)
  TEAE incidence: Rash: 0 n (%)
  TEAE incidence: Suicidal ideation: 0 n (%)
  TEAE incidence: Syncope: 5 (0.5%) n (%)
  TEAE incidence: Tremor: 0 n (%)
  TEAE incidence: Upper respiratory tract infection: 0 n (%)
  TEAE incidence: Urinary incontinence: 1 (0.1%) n (%)
  TEAE incidence: Urinary tract infection: 3 (0.3%) n (%)
  TEAE incidence: Vitamin B12 decreased: 0 n (%)
  TEAE incidence: Vomiting: 3 (0.3%) n (%)
  TEAE incidence: Weight decreased: 0 n (%)
LMTM 8 mg/day (N = 860)
  Grouped TEAE incidence: Affective/Anxiety Symptoms: 60 (7.0%) n (%)
  Grouped TEAE incidence: Anaemia: 111 (12.9%) n (%)
